The source of these data is patent publication US8821908B2, “Mold-resistant construction materials” (Henkel AG & Co. KGaA, priority 2004, dated 2014).

Common to all, as to format: cell-based
Test [1] concerns test fungi envisaged in DIN EN ISO 846 or Aspergillus niger (ATCC 6275) as sole test organism. Put plainly: Fungal resistance of cured silicone joint sealant films, test along the lines of DIN EN ISO846 after QUV aging (infestation index). Also noted: key to Infestation index: sum of weekly growth ratings (0 = no growth to 5 = fully overgrown). The procedure:
Cured silicone films (approximately 80×60×5 mm) are sprayed alternately for 15 minutes each with a spray solution (2% strength aqueous Texapon NSO solution containing 0.5% Dehydran 1513 defoamer), then irradiated with UV light for 15 minutes, in a QUV accelerated weathering instrument (e.g. QUV-spray model). Per week, the test specimens are exposed to 198 spraying units and 198 UV units. After 4 (792 shower cycles), 8 (1584 shower cycles), and 12 weeks (2376 shower cycles), test specimens are taken for microbiological examination. An unweathered sample is likewise investigated microbiologically.
The fungal resistance of cured joint-sealing compounds is assessed in a method based on DIN EN ISO846: “Determination of the action of microorganisms on plastics (ISO 846:1997 German version EN ISO 846: 1997); (amended).
Test specimens of cured joint-sealing compounds are applied planarly to an agar surface. A fungal suspension is caused to act on the test specimens and the surrounding agar surface. After incubation, an assessment is made of the growth on and around the test specimens.
Test conditions: The following important amendments and additions to the DIN EN ISO 846 are carried out: • (1) The test specimens are tested to DIN EN ISO 846 without pretreatment. Additionally, test specimens are also assessed in the test after pretreatment. This pretreatment (leaching) may take place, for example, by incubation for a number of weeks in a flow-traversed immersion bath with water or by accommodating suitable test specimens in a QUV; • (2) The fungal spore suspension is incubated under relatively harsh, realistic conditions with increased ambient air humidity (approximately 85% relative humidity) in a humid chamber; • (3) The test specimens are incubated on ‘complete nutrient medium’ (cf. DIN EN ISO 846 4.2.1.2 method B), but with ‘wort agar’; • (4) As test organisms use is made either of the test fungi envisaged in DIN EN ISO 846: • Aspergillus niger ATCC 6275 • Penicillium funiculosum ATCC 36839 • Paecilomyces variotii ATCC 18502 • Gliocladium virens ATCC 9645 • Chaetomium globosum ATCC 6205 • or, alternatively, the strain Aspergillus niger (ATCC 6275) as sole test organism.
Evaluation of the growth on the test elements: • 0=no growth visible under microscope viewing • 1=no growth visible with naked eye, but growth clearly visible under the microscope • 2=growth visible with naked eye, up to 25% of the sample surface overgrown • 3=growth visible with naked eye, up to 50% of the sample surface overgrown • 4=considerable growth, over 50% of the sample surface overgrown • 5=severe growth, entire sample surface overgrown
All in all, the specimens are incubated for 18 weeks and inoculated again after 4 and 8 weeks in each case. The individual evaluations are added over this period and reported collectively as the infestation index.
A commercially customary silicone joint sealant (e.g., Dow Corning 3390) is admixed with the actives described and stirred with a stirrer until homogeneity is achieved. Thereafter, films of the sealant are produced and tested as described above.

In test [2] the test system is Aspergillus niger (DSM1988). Put plainly: Sporulation inhibition on wort agar plates. Here is the method: The surface of wort agar plates was contaminated with 100 μl in each case of a microbial suspension (10^3 CFU/ml) of Aspergillus niger (DSM1988). Added beforehand to the agar plates were different amounts of active (solutions in ethanol, for final concentrations see table). The plates were incubated at 25° C. for 3 days. Spore formation was assessed visually and the sporulation rate was ascertained in [%]. A growth inhibition or microbicidal effect only occurred for a concentration of 0.05% by weight OPP.

The next test deals with Candida albicans. Put plainly: Hyphal formation and cell growth of Candida albicans. The text has this: Fucoidin, also known under the name fucosidan or fucoidan, is a polysaccharide from brown algae (Fucus vesiculosa, bladder wrack) which consists principally of sulfated L-fucose in 1,2-α-glycosidic linkage.
Setting [3] is: Amount of active added 500 ppm in silicone joint sealant, evaluations (0-5) added over 18 weeks.
Where [4] appears, read: Amount of active added 1000 ppm in silicone joint sealant, evaluations added over 18 weeks.

Consider `CCCCCCCCn1sc(Cl)c(Cl)c1=O` [DCOIT], for which the Infestation index in test [1] (setting [3]) was 77; in test [1] (setting [4]), 81; in test [1] (Amount of active added 2000 ppm in silicone joint sealant, evaluations added over 18 weeks) it was 78.

On to `CC(C)(C)C(O)(CCc1ccc(Cl)cc1)Cn1cncn1` (stereo not shown) [Tebuconazole, a-(2-(4-chlorophenyl)ethyl)-a-(1,1-dimethylethyl)-1H-1,2,4-triazole-1-ethanol], for which the Infestation index is given as 60 in test [1] (setting [3]); 57 in test [1] (setting [4]); 37 in test [1] (Amount of active added 2500 ppm in silicone joint sealant, evaluations added over 18 weeks); 20 in test [1] (Amount of active added 5000 ppm in silicone joint sealant, evaluations added over 18 weeks); 12 in test [1] (Amount of active added 10000 ppm in silicone joint sealant, evaluations added over 18 weeks). Moreover, in test [1] (in sealants, not observed with fungicides typically used at present), the “dependence of mold prevention on concentration” value is on record as “virtually linear dependence with increasing concentration”.

As for `Oc1ccccc1-c1ccccc1` [ortho-phenylphenol], the “Sporulation [%]” value in test [2] (Concentration of OPP 0.00001 %, 25° C., 3 days, assessed visually) was 95%; in test [2] (Concentration of OPP 0.00005 %, 25° C., 3 days), 95%; in test [2] (Concentration of OPP 0.0001 %, 25° C., 3 days) it was 95%; in test [2] (Concentration of OPP 0.0005 %, 25° C., 3 days) it was 50%; in test [2] (Concentration of OPP 0.001 %, 25° C., 3 days), 25%; in test [2] (Concentration of OPP 0.005 %, 25° C., 3 days), 0%. Besides, the “concentration of complete suppression of spore formation relative to growth-inhibiting concentration” value in test [2] (without any growth inhibition activity occurring) was “fifty times lower”. Further, the “concentration at which a growth inhibition or microbicidal effect occurred” value in test [2] (wort agar, 25° C., 3 days) stood at 0.05 % by weight. Also, in test [2] (wort agar, 25° C., 3 days), the “use concentration at which spore formation was suppressed completely” value amounted to 0.001 % by weight.

Take Fucoidin: in the test with Candida albicans, the cell growth entry is on record as “unaffected” and the hyphal formation entry is “significantly reduced”.

Turning to ortho-phenylphenol-silicic ester, the “Sporulation [%]” value in test [2] (Concentration of OPP-silicic ester 0.00001 %, 25° C., 3 days) came to 95%; in test [2] (Concentration of OPP-silicic ester 0.00005 %, 25° C., 3 days), 95%; in test [2] (Concentration of OPP-silicic ester 0.0001 %, 25° C., 3 days), 95%; in test [2] (Concentration of OPP-silicic ester 0.0005 %, 25° C., 3 days), 50%; in test [2] (Concentration of OPP-silicic ester 0.001 %, 25° C., 3 days), 25%; in test [2] (Concentration of OPP-silicic ester 0.005 %, 25° C., 3 days) it was 0%. The “Sporulation [%]” value in test [2] (Concentration of OPP-silicic ester 0.01 %, 25° C., 3 days) was determined as 0%. Further, the “use concentration at which spore formation was suppressed completely” value in test [2] (wort agar, 25° C., 3 days) amounted to 0.005 % by weight.
